Inconclusive results and toxic doses are left out. Cut-off read from the data, not from the text of the source: active = T/C of 150% or more; inactive = T/C below 125%.
Tested on: L1210 leukemia ip in BDF1 mice, survival T/C
Test: NCI In Vivo Anticancer Drug Screen. Data for tumor model L1210 Leukemia (intraperitoneal) in B6D2F1 (BDF1) mice
Conditions: endpoint: mean survival time, higher = longer survival
Summary of the method: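 Tumor was transplanted into mice, which were then dosed with test compound or vehicle alone. Survival was recorded for each group, and the treated figure was expressed relative to the control figure.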

[1] = dose: 100.0 mg/kg/injection, schedule: Q04DX002 (ip), vehicle: Klucel (hydroxypropylcellulose) (HPC)
[2] = dose: 200.0 mg/kg/injection, schedule: Q04DX002 (ip), vehicle: Klucel (hydroxypropylcellulose) (HPC)
[3] = dose: 100.0 mg/kg/injection, schedule: Q04DX003 (ip), vehicle: saline
[4] = dose: 200.0 mg/kg/injection, schedule: Q04DX003 (ip), vehicle: saline
[5] = dose: 400.0 mg/kg/injection, schedule: Q04DX003 (ip), vehicle: saline
[6] = dose: 100.0 mg/kg/injection, schedule: Q01DX009 (ip), vehicle: saline with Tween-80
[7] = dose: 200.0 mg/kg/injection, schedule: Q01DX009 (ip), vehicle: saline with Tween-80
[8] = dose: 400.0 mg/kg/injection, schedule: Q01DX009 (ip), vehicle: saline with Tween-80
[9] = dose: 100.0 mg/kg/injection, schedule: Q04DX003 (ip), vehicle: saline with Tween-80
[10] = dose: 200.0 mg/kg/injection, schedule: Q04DX003 (ip), vehicle: saline with Tween-80
[11] = dose: 400.0 mg/kg/injection, schedule: Q04DX003 (ip), vehicle: saline with Tween-80

Measured: T/C

CCCCC(CC)CNC1CCCCC1 (stereo not drawn)
inactive: dose: 75.0 mg/kg/injection, schedule: Q01DX009 (ip), vehicle: Klucel (hydroxypropylcellulose) (HPC) 98 % of control | [1] 101 % of control | dose: 150.0 mg/kg/injection, schedule: Q01DX009 (ip), vehicle: Klucel (hydroxypropylcellulose) (HPC) 101 % of control | [2] 97 % of control

O=c1[nH]ccn2cncc12
inactive: [3] 93 % of control | [4] 103 % of control | [5] 106 % of control

CCNc1ccc(/C=C2\C=Cc3ccccc32)cc1
inactive: dose: 25.0 mg/kg/injection, schedule: Q01DX009 (ip), vehicle: Klucel (hydroxypropylcellulose) (HPC) 96 % of control | dose: 50.0 mg/kg/injection, schedule: Q01DX009 (ip), vehicle: Klucel (hydroxypropylcellulose) (HPC) 102 % of control | dose: 75.0 mg/kg/injection, schedule: Q01DX001 (ip), vehicle: olive oil, sesame oil, peanut oil 103 % of control | dose: 100.0 mg/kg/injection, schedule: Q01DX009 (ip), vehicle: Klucel (hydroxypropylcellulose) (HPC) 96 % of control | dose: 150.0 mg/kg/injection, schedule: Q01DX001 (ip), vehicle: olive oil, sesame oil, peanut oil 108 % of control

COc1ccc2nccc(C(=O)CCC3CCN(C(=O)c4ccc([N+](=O)[O-])cc4)CC3C(CBr)CCBr)c2c1 (stereo not drawn)
inactive: dose: 100.0 mg/kg/injection, schedule: Q01DX001 (ip), vehicle: other 104 % of control | dose: 200.0 mg/kg/injection, schedule: Q01DX001 (ip), vehicle: other 88 % of control | dose: 400.0 mg/kg/injection, schedule: Q01DX001 (ip), vehicle: other 111 % of control

Cc1cccc(C)c1NC(=O)NS(=O)(=O)c1ccccc1
inactive: dose: 50.0 mg/kg/injection, schedule: Q01DX009 (ip), vehicle: saline with Tween-80 90 % of control | [6] 100 % of control | dose: 100.0 mg/kg/injection, schedule: Q04DX003 (ip), vehicle: acetone 95 % of control | [7] 95 % of control | dose: 200.0 mg/kg/injection, schedule: Q04DX003 (ip), vehicle: acetone 103 % of control

Cc1ccc(CC(=O)O)cc1C
inactive: [6] 101 % of control | [7] 104 % of control | [8] 102 % of control

CC(C)(S)CNCCSC(=O)c1ccccc1
inactive: [9] 102 % of control | [10] 100 % of control | [11] 92 % of control

O=C(O)C1CC(Br)C(Br)CC1C(=O)Nc1cccc2ccccc12 (stereo not drawn)
inactive: [1] 100 % of control | [2] 92 % of control | dose: 400.0 mg/kg/injection, schedule: Q04DX002 (ip), vehicle: Klucel (hydroxypropylcellulose) (HPC) 95 % of control

CCOC(=O)C(=O)Nc1cc(C)ccc1C
inactive: [9] 93 % of control | [10] 95 % of control

CC(C)C1NC(=O)NC1=O (stereo not drawn)
inactive: dose: 100.0 mg/kg/injection, schedule: Q01DX009 (ip), vehicle: saline 98 % of control | [3] 103 % of control | dose: 200.0 mg/kg/injection, schedule: Q01DX009 (ip), vehicle: saline 105 % of control | [4] 101 % of control | dose: 400.0 mg/kg/injection, schedule: Q01DX009 (ip), vehicle: saline 103 % of control | [5] 97 % of control

CCOC(=O)CNC(=O)Nc1cccc(F)c1
inactive: [6] 103 % of control | [7] 102 % of control | [8] 96 % of control

O=C(O)Cc1cc2c(cc1[N+](=O)[O-])OCO2
inactive: dose: 50.0 mg/kg/injection, schedule: Q01DX001 (ip), vehicle: saline 103 % of control | dose: 100.0 mg/kg/injection, schedule: Q01DX001 (ip), vehicle: saline 97 % of control | dose: 200.0 mg/kg/injection, schedule: Q01DX001 (ip), vehicle: saline 97 % of control | dose: 400.0 mg/kg/injection, schedule: Q01DX001 (ip), vehicle: saline 103 % of control

CC(NC(=O)/C=C\C(=O)O)c1ccccc1 (stereo not drawn)
inactive: [3] 92 % of control | [4] 102 % of control | [5] 103 % of control

CCCCc1ccc(Sc2cccc3c2C(=O)c2c(Sc4ccc(CCCC)cc4)cccc2C3=O)cc1
inactive: [6] 97 % of control | [9] 93 % of control | [7] 102 % of control | [10] 97 % of control | [8] 92 % of control | [11] 97 % of control
